The results in this text go back to patent US7026281B1, “Antagonistic analogs of GH-RH inhibiting IGF-I and -II” (The Administrators of the Tulane Educational Fund, priority 1998, dated 2006).

What all share (assay type): in vivo
Test [1] has as its system Estrogen independent MXT mouse mammary tumors. The test can be described thus: MXT mouse mammary tumors in BDF mice. As to conditions: for Tumor weights: day 18; for Number of surviving mice: groups of 10. The method, then:
Estrogen independent MXT tumors were transplanted sc. to female BDF mice. One day after transplantation, the mice were divided into groups of 10 animals each, and the treatment was started. The mice in groups 1, 2, 3, and 4 received single injections daily of various GH-RH antagonists sc. at 20 μg dose per day for 18 days. In groups 5 and 6, the peptides were administered by Alzet osmotic pumps releasing a daily amount of 20 μg peptide. Tumors were measured regularly, and tumor volume was calculated. The mice were sacrificed on day 18 and tumor weights were measured.

Test [2] concerns MDA-MB-468 human breast cancer xenografts. The test can be described thus: MDA-MB-468 human breast cancer xenografts in nude mice. As to conditions: 20 μg daily s.c., 5 weeks. As to the method:
Nude mice bearing MDA-MB-468 hormone-independent human breast cancer xenografts were divided into groups of 10 animals each. The treated groups received single daily s.c. injections of 20 μg of GH-RH antagonists. One group was treated with Peptide 1, a second group was treated with MZ-5-156 for comparison. The control group was injected with the vehicle solvent. The treatment was continued for 5 weeks. Tumors were measured once a week and tumor volume was calculated. The mice were sacrificed at the end of experiment and tumor weights were measured.

Test [3] relates to HT-29 human colon cancers. As to the kind of experiment: HT-29 human colon cancer xenografts in nude mice. The conditions noted are these: 20 μg daily sc., 6 weeks. As to the method:
HT-29 human colon cancers were transplanted sc. into male nude mice. 19 days after transplantation, the mice were divided into groups of 10 animals each, and the treatment was started. The mice received single daily injections of various GH-RH antagonists sc. at 20 μg dose per day for 6 weeks. Tumors were measured regularly, and tumor volume was calculated. The mice were sacrificed at the end of experiment and tumor weights were measured.

Test [4] deals with U87MG human glioblastoma xenografts. The test can be described thus: U87MG human glioblastoma xenografts in nude mice. The conditions noted are these: 20 μg daily s.c., 28 days. The method, then:
Mice were implanted s.c. with U87MG glioblastomas and when tumors reached a volume of approx. 70 mm^3 the mice were randomly divided into 2 experimental groups. One group was treated with Peptide 1 in single daily s.c. injections of 20 μg for 28 days, while the other group served as control.

Test [5] has as its system PC-3 human prostate cancer xenografts. As to the kind of experiment: PC-3 human prostate cancer xenografts in nude mice. As to conditions: 20 μg daily s.c., 21 days. The method, then: Male nude mice were implanted s.c. with 3 mm^3 pieces of PC-3 human hormone-independent prostate cancer tissue into both flanks. When tumors reached a volume of approx. 40–50 mm^3 the mice were divided into 3 experimental groups. The first and second groups were treated with peptides Peptide 3 and MZ-5-156, respectively, in single daily s.c. injections of 20 μg for 21 days, while the third group served as control. Tumor volumes were measured at weekly intervals, tumor weights were measured at the end of experiment.

Where [6] appears, read: Alzet osmotic pump, 20 μg daily.
Setting [7] is: single daily sc. injections, 20 μg per day.

Structures are written as SMILES. Marks after values point to notes of the source that are not given here. Square brackets hold non-standard residues; d marks the D form. Peptide text beside a SMILES is read from it. * marks the point of attachment. Phe(4-Cl) = N[C@@H](Cc1ccc(Cl)cc1)C(=O)O; hArg = N=C(N)NCCCC[C@H](N)C(=O)O; Nle = CCCC[C@H](N)C(=O)O; Abu = CC[C@H](N)C(=O)O; PhAc = O=C(Cc1ccccc1)*

For the molecule `CCCC[C@H](NC(=O)[C@@H](NC(=O)[C@H](CC(=O)O)NC(=O)[C@H](CCC(N)=O)NC(=O)[C@H](CC(C)C)NC(=O)[C@H](CC(C)C)NC(=O)[C@H](CCCCN)NC(=O)[C@H](CCCNC(=N)N)NC(=O)[C@H](C)NC(=O)[C@H](CO)NC(=O)[C@H](CC(C)C)NC(=O)[C@H](CCC(N)=O)NC(=O)[C@H](CC)NC(=O)[C@H](CC(C)C)NC(=O)[C@@H](NC(=O)[C@H](CCCCN)NC(=O)[C@H](CCCNC(=N)N)NC(=O)[C@H](Cc1ccc(O)cc1)NC(=O)[C@H](CCCNC(=N)N)NC(=O)[C@H](CC(N)=O)NC(=O)[C@@H](NC(=O)[C@H](Cc1ccc(Cl)cc1)NC(=O)[C@@H](NC(=O)[C@H](C)NC(=O)[C@H](CC(=O)O)NC(=O)[C@@H](CCCNC(=N)N)NC(=O)[C@H](Cc1ccc(O)cc1)NC(=O)Cc1ccccc1)[C@@H](C)CC)[C@@H](C)O)C(C)C)[C@@H](C)CC)C(=O)N[C@H](CCCNC(=N)N)C(=O)N[C@@H](CCCCNC(=N)N)C(N)=O` [Peptide 1, [PhAc^0, D-Arg^2, Phe(pCl)^6, Arg^9, Abu^15, Nle^27, D-Arg^28, Har^29]hGH-RH(1–29)NH2] (PhAc-Y[dR]DAI[Phe(4-Cl)]TNRYRKVL[Abu]QLSARKLLQDI[Nle][dR][hArg]-NH2), in test [1] (setting [6]), the “Tumor volume (mm^3) On day 14” value is listed as 1329 ± 327** mm^3, the “Tumor volume (mm^3) On day 18” value is 3403 ± 584** mm^3, the “Tumor weights” value was found to be 4810 ± 645 mg and the “Number of surviving mice” value was 7. In test [1] (setting [7]), the “Tumor volume (mm^3) On day 14” value is reported as 2924 ± 654 mm^3, the “Tumor volume (mm^3) On day 18” value is recorded as 4373 ± 381** mm^3, the “Tumor weights” value turned out to be 6964 ± 676 mg and the “Number of surviving mice” value was 6. In test [2] (nude mice), the “Final tumor volume (mm^3)” value is reported as 82.4 ± 29.1** mm^3 and the “Tumor weight” value is recorded as 64.0 ± 28.7 mg. In addition, the “Number of regressed tumors” value in test [2] (groups of 10) is 4. The “Inhibitory effect on HT-29 human colon cancers (in words)” value in test [3] was “equally strong inhibitory effect”. Moreover, in test [3] (nude mice), the “Final tumor volume (mm^3)” value is 890 ± 322* mm^3 and the “Tumor weight” value worked out at 1354 ± 480 mg. For the same molecule, in test [4], the “Final tumor volume (mm^3)” value was 817 ± 323** mm^3 and the “Tumor weight” value is reported as 1.4 ± 0.7 g.
Consider `CCCC[C@H](NC(=O)[C@@H](NC(=O)[C@H](CC(=O)O)NC(=O)[C@H](CCC(N)=O)NC(=O)[C@H](CC(C)C)NC(=O)[C@H](CC(C)C)NC(=O)[C@H](CCCCN)NC(=O)[C@H](CCCNC(=N)N)NC(=O)[C@H](C)NC(=O)[C@H](CO)NC(=O)[C@H](CC(C)C)NC(=O)[C@H](CCC(N)=O)NC(=O)[C@H](CC)NC(=O)[C@H](CC(C)C)NC(=O)[C@@H](NC(=O)[C@H](CCCCN)NC(=O)[C@H](CCCNC(=N)N)NC(=O)[C@H](Cc1ccc(OC)cc1)NC(=O)[C@H](CCCCNC(=N)N)NC(=O)[C@H](CC(N)=O)NC(=O)[C@@H](NC(=O)[C@H](Cc1ccc(Cl)cc1)NC(=O)[C@@H](NC(=O)[C@H](C)NC(=O)[C@H](CC(=O)O)NC(=O)[C@@H](CCCNC(=N)N)NC(=O)[C@H](Cc1ccc(O)cc1)NC(=O)Cc1ccccc1)[C@@H](C)CC)[C@@H](C)O)C(C)C)[C@@H](C)CC)C(=O)N[C@H](CCCNC(=N)N)C(=O)N[C@@H](CCCCNC(=N)N)C(N)=O` [Peptide 3, [PhAc^0, D-Arg^2, Phe(pCl)^6, Har^9, Tyr(Me)^10, Abu^15, Nle^27, D-Arg^28, Har^29]hGH-RH(1–29)NH2] (PhAc-Y[dR]DAI[Phe(4-Cl)]TN[hArg]Y(Me)RKVL[Abu]QLSARKLLQDI[Nle][dR][hArg]-NH2), for which, in test [1] (setting [6]), the “Tumor volume (mm^3) On day 14” value is on record as 1688 ± 220** mm^3, the “Tumor volume (mm^3) On day 18” value is 4272 ± 295** mm^3, the “Tumor weights” value is recorded as 5939 ± 453 mg and the “Number of surviving mice” value is on record as 8. Besides, in test [1] (setting [7]), the “Tumor volume (mm^3) On day 14” value is 1902 ± 349** mm^3, the “Tumor volume (mm^3) On day 18” value was 3465 ± 607** mm^3, the “Tumor weights” value is 5266 ± 906 mg and the “Number of surviving mice” value was 8. In test [5], the “Inhibition in tumor volume” value came to 65% and the “Inhibition in tumor weight” value was 62%. In test [5] (nude mice), the “Final tumor volume (mm^3)” value was 107.9 ± 12.5* mm^3 and the “Tumor weight” value is 73.7 ± 11.9 mg.
